In patent US5464617A, “β-lactam compounds” (Hoffmann-La Roche Inc., priority 1994, dated 1995):
Structures can show the parent of a compound that is named as a salt.

Assays:
E. coli 1346 = test: Antibacterial activity of the products per se, serial dilution method in liquid medium (Test E); type: cell-based; settings: product per se; for MIC E. coli 1346 (E): Table 4, test E; for MIC E. coli 1346: Table 3, liquid medium
From the text: The antibacterial activity of the products per se is illustrated on the basis of Table 3 hereinafter, the minimum inhibitory concentration […] in vitro against E. coli 1346 being determined using the serial dilution method in liquid medium: […]

[1] = system: Citrobacter freundii 1982; test: MIC in vitro of a 1:4 combination of ceftriaxone with a compound of formula I (Test D); type: cell-based; settings: 1:4 combination of ceftriaxone with the compound; for MIC C. freundii 1982 (D): Table 4, test D; for MIC C. freundii 1982: Table 2
Experimental: The minimum inhibitory concentration in vitro ([…]) of a 1:4 combination of ceftriaxone with a compound of formula I against Citrobacter freundii 1982 was measured and compiled in Table 2 hereinafter.

| Compound | MIC E. coli 1346 (E) (E. coli 1346) [µg/mL] | MIC C. freundii 1982 (D) [1] [µg/mL] | MIC E. coli 1346 (E. coli 1346) [µg/mL] | MIC C. freundii 1982 [1] [µg/mL] |
| --- | --- | --- | --- | --- |
| CS(=O)(=O)OC1=C(C(=O)O)N2C(=O)[C@@H]3[C@H]2[C@H](C1)CN3C(=O)Nc1ccc(O)cc1 [9(a), (1aS,3aR,6bR)-2-(4-Hydroxy-phenylcarbamoyl)-5-methylsulphonyloxy-1-oxo-1a,2,3,3a,4,6b-hexahydro-1H-2,6a-diazacyclobut[cd]indene-6-carboxylic acid sodium salt] | – | – | 32 | 0.12 |
| N#C/C=C/C1=C(C(=O)O)N2C(=O)[C@@H]3[C@H]2[C@H](C1)CN3C(=O)Nc1ccc(O)cc1 [49(b), (E)-(1aS,3aR,6bR)-5-(2-Cyanovinyl)-2-(4-hydroxyphenylcarbamoyl)-1-oxo-1a,2,3,3a,4,6b-hexahydro-1H-2,6a-diazacyclobut[cd]indene-6-carboxylic acid sodium salt] | 4 | 1 | – | – |
| O=C(O)C1=C(Sc2ccncc2)C[C@@H]2CN[C@@H]3C(=O)N1[C@H]23 [Example 2(d), (1aS,3aR,6bR)-1-oxo-5-(pyridin-4-ylsulphanyl)-1a,2,3,3a,4,6b-hexahydro-1H-2,6a-diazacyclobut[cd]indene-6-carboxylic acid trifluoroacetate] | > 32 | 64 | – | – |
| O=C(NCc1ccc(O)cc1)OCC1=C(C(=O)O)N2C(=O)[C@H]3NC[C@@H](C1)[C@H]32 [Example 101, (1aS,3aR,6bR)-5-[(4-Hydroxy-benzyl)-carbamoyloxymethyl]-1-oxo-1a,2,3,3a,4,6b-hexahydro-1H-2,6a-diazacyclobut[cd]indene-6-carboxylic acid trifluoroacetate] | 2 | 1 | – | – |
| CC(=O)N1C[C@H]2OC(CSc3nnnn3CC(=O)NOC(c3ccccc3)(c3ccccc3)c3ccccc3)=C(C(=O)O)N3C(=O)[C@@H]1[C@@H]23 [32(h), (1aS,3aR,6bS)-2-Acetyl-1-oxo-5-(1-(trityloxycarbamoylmethyl)-1H-tetrazol-5-ylsulphanylmethyl)-1,1a,2,3,3a,6b-hexahydro-4-oxa-2,6 a-diazacyclobut[cd]indene-6-carboxylic acid sodium salt] | > 32 | 64 | – | – |
| Cc1nnc(SCC2=C(C(=O)O)N3C(=O)[C@@H]4[C@H]3[C@@H](CN4C(=O)Nc3ccc(C(N)=O)cc3)O2)s1 [31(b), (1aS,3aR,6bS)-2-(4-Carbamoyl-phenylcarbamoyl)-5-(S-methyl-1,3,4-thiadiazol-2-ylsulphanylmethyl)-1-oxo-1,1a,2,3,3a,6b-hexahydro-4-oxa-2,6a-diazacyclobut[cd]indene-6-carboxylic acid sodium salt] | 8 | 0.2 | – | – |
| CS(=O)(=O)OC1=C(C(=O)O)N2C(=O)[C@@H]3[C@H]2[C@H](C1)CN3C(=O)NC1CCSC1=O (mixture of isomers) [9(f), (1aS,3aR,6bR)-5-Methylsulphonyloxy-1-oxo-2-[(R) and [(S)-2-oxo-tetrahydro-thien-3-ylcarbamoyl]-1a,2,3,3a,4,6b-hexahydro-1H-2,6a-diazacyclobut[cd]indene-6-carboxylic acid sodium salt] | – | – | 32 | 0.12 |

Further lines, results first:

| MIC E. coli 1346 (E) (E. coli 1346) [µg/mL] | MIC C. freundii 1982 (D) [1] [µg/mL] | MIC E. coli 1346 (E. coli 1346) [µg/mL] | MIC C. freundii 1982 [1] [µg/mL] | Compound |
| --- | --- | --- | --- | --- |
| 0.5 | 0.5 | – | – | CS(=O)(=O)N1C[C@H]2CC(COC(N)=O)=C(C(=O)O)N3C(=O)[C@@H]1[C@@H]23 [58(c), (1aS,3aR,6bR)-5-Carbamoyloxymethyl-2-methylsulphonyl-1-oxo-1a,2,3,3a,4,6b-hexahydro-1H-2,6a-diazacyclobut[cd]indene-6-carboxylic acid sodium salt] |
| 4 | 4 | – | – | CC(=O)N1C[C@H]2CC(Sc3nnc(N)s3)=C(C(=O)O)N3C(=O)[C@@H]1[C@@H]23 [3(ae), (1aS,3aR,6bR)-2-Acetyl-5-(5-amino-1,3,4-thiadiazol-2-ylsulphanyl)-1-oxo-1a,2,3,3a,4,6b-hexahydro-1H-2,6a-diazacyclobut[cd]indene-6-carboxylic acid sodium salt] |
| – | – | 32 | 0.25 | Cn1nnnc1SCC1=C(C(=O)O)N2C(=O)[C@@H]3[C@H]2[C@H](C1)CN3C(=O)Nc1ccc(C(N)=O)cc1 [18(b), (1aS,3aR,6bR)-2-(4-Carbamoyl-phenylcarbamoyl)-5-(1-methyl-1H-tetrazol-5-ylsulphanylmethyl)-1-oxo-1a,2,3,3a,4,6b-hexahydro-1H-2,6a-diazacyclobut[cd]indene-6-carboxylic acid sodium salt] |
| 2 | 1 | – | – | CNC(=O)OCC1=C(C(=O)O)N2C(=O)[C@@H]3[C@H]2[C@H](C1)CN3C(C)=O [98(a), (1aS,3aR,6bR)-2-Acetyl-5-methylcarbamoyloxymethyl-1-oxo-1a,2,3,3a,4,6b-hexahydro-1H-2,6a-diazacyclobut[cd]indene-6-carboxylic acid sodium salt] |
| 4 | 2 | – | – | O=C(O)C1=C(CSc2ncccn2)C[C@@H]2CN(C(=O)C(F)(F)F)[C@@H]3C(=O)N1[C@H]23 [72(b), (1aS,3aR,6bR)-1-Oxo-5-(pyrimidin-2-ylsulphanylmethyl)-2-trifluoroacetyl-1a,2,3,3a,4,6b-hexahydro-1H-2,6a-diazacyclobut[cd]indene-6-carboxylic acid sodium salt] |
| > 32 | 2 | – | – | N#C/C=C\C1=C(C(=O)O)N2C(=O)[C@@H]3[C@H]2[C@H](C1)CN3C(=O)Nc1ccc(O)cc1 [49(a), (Z) -(1aS,3aR,6bR)-5-(2-Cyanovinyl)-2-(4-hydroxyphenylcarbamoyl)-1-oxo-1a,2,3,3a,4,6b-hexahydro-1H-2,6a-diazacyclobut[cd]indene-6-carboxylic acid sodium salt] |
| > 32 | 0.5 | – | – | C=CC1=C(C(=O)O)N2C(=O)[C@@H]3[C@H]2[C@H](C1)CN3C(=O)Nc1ccc(C(N)=O)cc1 [46(b), (1aS,3aR,6bR)-2-(4-Carbamoyl-phenylcarbamoyl)-1-oxo-5-vinyl-1a,2,3,3a,4,6b-hexahydro-1H-2,6a-diazacyclobut[cd]indene-6-carboxylic acid sodium salt] |
| 1 | 0.5 | – | – | NC(=O)Cn1nnnc1SCC1=C(C(=O)O)N2C(=O)[C@@H]3[C@H]2[C@H](C1)CN3C(=O)C(F)(F)F [70(b), (1aS,3aR,6bR)-5-(1-Carbamoylmethyl-1H-tetrazol-5-ylsulphanylmethyl)-2-trifluoroacetyl-1-oxo-1a,2,3,3a,4,6b-hexahydro-1H-2,6a-diazacyclobut[cd]indene-6-carboxylic acid sodium salt] |
| 16 | 4 | – | – | CC(=O)N1C[C@H]2CC(CNS(C)(=O)=O)=C(C(=O)O)N3C(=O)[C@@H]1[C@@H]23 [88(a), (1aS,3aR,6bR)-2-Acetyl-5-methylsulphonylaminomethyl-1-oxo-1a,2,3,3a,4,6b-hexahydro-1H-2,6a-diazacyclobut[cd]indene-6-carboxylic acid sodium salt] |
